PubChem BioAssay (NCI)
Where “and” joins values, the source holds several entries; their conditions need not be identical. Equal values may be shown once.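 Results reflect a 48-hour exposure of cells in 96-well plates to compound at five concentrations. Abbreviation: GI50, concentration required for 50% inhibition of growth. The concentration for full growth arrest is given as TGI.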

Assays:
Assay in all cases: growth of human tumour cells (NCI), 48 h
CAKI-1 renal = test system: CAKI-1 renal
HCT-116 colon = test system: HCT-116 colon
HT29 colon = test system: HT29 colon
K-562 leukemia = test system: K-562 leukemia
LOX IMVI melanoma = test system: LOX IMVI melanoma
M14 melanoma = test system: M14 melanoma
NCI-H23 lung = test system: NCI-H23 lung
OVCAR-4 ovarian = test system: OVCAR-4 ovarian
SK-MEL-5 melanoma = test system: SK-MEL-5 melanoma
UACC-62 melanoma = test system: UACC-62 melanoma

Row | Structure (SMILES) | GI50 (CAKI-1 renal) | TGI (CAKI-1 renal) | GI50 (HCT-116 colon) | TGI (HCT-116 colon) | GI50 (HT29 colon) | TGI (HT29 colon) | GI50 (K-562 leukemia) | TGI (K-562 leukemia) | GI50 (LOX IMVI melanoma) | TGI (LOX IMVI melanoma) | TGI (M14 melanoma) | GI50 (NCI-H23 lung) | TGI (NCI-H23 lung) | GI50 (OVCAR-4 ovarian) | TGI (OVCAR-4 ovarian) | GI50 (SK-MEL-5 melanoma) | TGI (SK-MEL-5 melanoma) | GI50 (UACC-62 melanoma) | TGI (UACC-62 melanoma) | GI50 (M14 melanoma)
1 | CO[C@@H]1[C@H](OC(=O)NC(=O)CCl)CC[C@]2(CO2)[C@H]1[C@@]1(C)O[C@@H]1CC=C(C)C | 29.6 µM | 25.7 µM and 59.1 µM | 2770 nM and 11200 nM and 2960 nM | 28.7 µM and 40.9 µM | 8.62 µM and 20.5 µM | 27.5 µM and 88.9 µM | 32.7 µM | 58.5 µM and 129 µM | 2.76 µM | 25.2 µM and 34.6 µM | 32.3 µM and 40.5 µM | 2.99 µM and 5.94 µM | 37 µM and 30.8 µM | 25.9 µM | 39.1 µM and 176 µM | 3.87 µM and 12.3 µM | 24.2 µM and 40.7 µM | 6.21 µM and 4.01 µM | 26 µM and 24.1 µM | 
2 | C[C@@]12CCC(=O)C=C1CC[C@H]1C2=CC[C@]2(C)C1CC[C@@]2(C)O (some centres not stated) |  | > 100 µM |  | > 100 µM |  | > 100 µM |  | > 100 µM |  | > 100 µM | > 100 µM |  | > 100 µM |  | > 100 µM |  | > 100 µM |  | > 100 µM | 
3 | C=C1C(=O)O[C@H]2[C@H]1CC/C(COC(=O)NCc1c[nH]c3ccc(Cl)cc13)=C\CC[C@@]1(C)O[C@@H]21 | 1.45 µM | 2.81 µM | 1270 nM | 2.61 µM | 0.625 µM | 2.12 µM | 0.416 µM | 2.02 µM | 0.633 µM | 2.03 µM | 2.91 µM | 1.71 µM | 3.39 µM | 1.45 µM | 3.16 µM | 1.64 µM | 3.01 µM | 1.34 µM | 2.76 µM | 1.4 µM
4 | COC(=O)[C@]1(C)CCC[C@@]2(C)C1CCC1=CC3(C(C)C)CCC12OO3 (some centres not stated) |  | > 100 µM |  | > 100 µM |  | > 100 µM |  | > 100 µM |  | > 100 µM | > 100 µM |  | > 100 µM |  | > 100 µM |  | > 100 µM |  | > 100 µM | 
5 | COc1ccc([N+](=O)[O-])c(S(=O)(=O)c2ccc(Cl)cc2)n1 | 1.61 µM | 3.01 µM | 2900 nM | 9.33 µM | 3.34 µM | 13.9 µM | 3.02 µM | > 100 µM | 1.98 µM | 4.19 µM | 10.1 µM | 4.58 µM | 29.2 µM | 2.32 µM | 6.51 µM | 12 µM | 24.9 µM | 3.56 µM | 13.3 µM | 3.05 µM
6 | C[C@H]1[C@H](C)CC[C@]2(C(=O)O)CC[C@]3(C)C(=CC[C@@H]4[C@@]5(C)C/C(=C/c6ccco6)C(=O)C(C)(C)[C@@H]5CC[C@]43C)[C@H]12 | 4.55 µM | 18 µM | 3100 nM | 11.7 µM | 5.3 µM | 34.6 µM | 3.26 µM | > 100 µM | 4.51 µM | 17 µM | 21.2 µM | 3.85 µM | 16.3 µM | 11.8 µM | 33.8 µM | 4.44 µM | 15.6 µM | 2.86 µM | 13 µM | 5.27 µM
7 | Cn1cc(C2=C(c3cn(CCN)c4ccccc34)C(=O)NC2=O)c2ccccc21 | 4.18 µM | 24.5 µM | 5570 nM | > 25 µM | 4.2 µM | 15.7 µM | 8.4 µM | > 25 µM | 6.05 µM | > 22.8 µM | 19.5 µM | 5.15 µM | 15.1 µM | 5.66 µM | > 21.2 µM | 4.59 µM | 13 µM | 5.9 µM | 17.2 µM | 6.15 µM
8 | NC1=N/C(=C2/CCNC(=O)c3[nH]c(Br)cc32)C(=O)N1 | > 33.9 µM and 5.68 µM | > 100 µM |  | > 100 µM | 27.2 µM and 67.7 µM | > 100 µM |  | > 100 µM |  | > 62.1 µM | > 100 µM |  | > 100 µM |  | 46.4 µM and 40.5 µM | 19.7 µM and 40.6 µM | > 100 µM |  | > 100 µM | 
9 | Nc1c(C(=O)Nc2ccccc2Cl)sc2nc3c(cc12)CCCCCC3 | 3.74 µM | > 100 µM | 1950 nM | 6.6 µM | 2.39 µM | 13.4 µM | 0.541 µM | > 100 µM | 5.7 µM | > 100 µM | 95.1 µM | 8.83 µM | > 100 µM | 2.11 µM | 5.1 µM | 3.91 µM | > 100 µM | 3.32 µM | > 100 µM | 2.25 µM
10 | NCc1nnn(Cc2ccccc2)c1N |  | > 100 µM |  | > 100 µM |  | > 100 µM |  | > 100 µM |  | > 100 µM | > 100 µM |  | > 100 µM |  | > 100 µM |  | > 100 µM |  | > 100 µM | 
11 | N#Cc1ccnc(N2C(=O)CC[C@H]2C(=O)N(c2cncc(F)c2)[C@H](C(=O)NC2CC(F)(F)C2)c2ccccc2Cl)c1 | > 100 µM | > 100 µM | 29900 nM | > 100 µM | 56.2 µM | > 100 µM | > 100 µM | > 100 µM | 52.6 µM | > 100 µM | > 100 µM | > 100 µM | > 100 µM | 39.1 µM | > 100 µM | > 100 µM | > 100 µM | 41.2 µM | > 100 µM | 49.1 µM
12 | C1=Cc2nc1c(-c1ccncc1)c1ccc([n-]1)c(-c1ccncc1)c1nc(c(-c3ccncc3)c3ccc([n-]3)c2-c2ccncc2)C=C1.[Zn+2] |  | > 100 µM |  | > 100 µM |  | > 100 µM |  | > 100 µM |  | > 100 µM | > 100 µM |  | > 100 µM |  | > 100 µM |  | > 100 µM |  | > 100 µM | 
13 | NC(=S)N/N=C1/C(=O)N(c2ccc(Cl)cc2Cl)C(=O)C(=O)C1c1nc2ccccc2s1 (configuration not stated) |  | > 100 µM |  | > 100 µM |  | > 100 µM |  | > 100 µM |  | > 100 µM | > 100 µM |  | > 100 µM |  | > 100 µM |  | > 100 µM |  | > 100 µM | 
14 | CN(C)CCCc1c[nH]c2ccccc12 |  | > 100 µM |  | > 100 µM |  | > 100 µM |  | > 100 µM |  | > 100 µM | > 100 µM |  | > 100 µM |  | > 100 µM |  | > 100 µM |  | > 100 µM | 
15 | COc1ccccc1CNCCCN1C(=O)c2ccc3c4c(ccc(c24)C1=O)C(=O)N(CCCNCCCN)C3=O | 1.11 µM | 5.77 µM | 136 nM | 3.04 µM | 0.159 µM | 1.54 µM | 0.216 µM | 3.76 µM | 0.232 µM | 1.92 µM | 2.71 µM | 0.31 µM | 2.55 µM | 0.847 µM | 2.67 µM | 0.482 µM | 1.82 µM | 0.653 µM | 2.17 µM | 0.972 µM
